Laboratory results from DBAASP.
Values after ≈ are worked out from the molar mass of the structure shown. One block for each molecule: values may come before it.

Legend:
Assay in all cases: ≥ marks a high value that may be exact or a test limit, other limits are often not marked, values filed in µg/mL are converted to µM
[1] = tested on: Candida albicans ATCC 2002
[2] = tested on: Escherichia coli ATCC 25922
Bacillus subtilis = tested on: Bacillus subtilis
[3] = tested on: Staphylococcus aureus ATCC 2592
[4] = tested on: Staphylococcus aureus NCTC 8325
[5] = tested on: Candida albicans ATCC 90028
[6] = tested on: Staphylococcus aureus ATCC 25923
[7] = tested on: Pseudomonas aeruginosa PAO1
Escherichia coli MG1655 = tested on: Escherichia coli MG1655
Candida albicans = tested on: Candida albicans
[8] = tested on: Pseudomonas aeruginosa ATCC 27853
[9] = tested on: Escherichia coli ATCC 35218
[10] = tested on: Pseudomonas aeruginosa CMCCB 10104
Escherichia coli UB1005 = tested on: Escherichia coli UB1005
Staphylococcus aureus = tested on: Staphylococcus aureus
Pseudomonas aeruginosa = tested on: Pseudomonas aeruginosa
[11] = tested on: Salmonella enterica serovar Typhimurium
Acinetobacter baumannii = tested on: Acinetobacter baumannii
Escherichia coli = tested on: Escherichia coli

MIC [1]: 1.23 µM (≈ 1.6 µg/mL) | MIC [2]: 19.2 µM (≈ 25 µg/mL) | MIC (Bacillus subtilis): 2.38 µM (≈ 3.1 µg/mL) | MIC [3]: 2.38 µM (≈ 3.1 µg/mL)
SMILES: CC[C@H](C)[C@H](NC(=O)[C@H](CCCCN)NC(=O)CNC(=O)[C@H](CC(C)C)NC(=O)[C@H](CC(C)C)NC(=O)[C@H](CO)NC(=O)[C@H](C)NC(=O)[C@H](CC(C)C)NC(=O)[C@H](CC(C)C)NC(=O)CNC(=O)CNC(=O)[C@H](CC(C)C)NC(=O)[C@@H](N)Cc1ccccc1)C(=O)O [FLGGLLASLLGKI]

MIC [2]: > 150 µM | MIC [4]: ≥ 125 µM | MIC [5]: ≥ 150 µM
SMILES: CC[C@H](C)[C@H](NC(=O)[C@H](CC(C)C)NC(=O)[C@H](CC(N)=O)NC(=O)[C@@H](NC(=O)[C@H](CC(C)C)NC(=O)[C@@H](NC(=O)[C@@H]1CCCN1C(=O)[C@H](CC(C)C)NC(=O)[C@@H](N)Cc1ccccc1)[C@@H](C)CC)[C@@H](C)CC)C(=O)N[C@@H](Cc1cnc[nH]1)C(=O)N[C@@H](CCCCN)C(=O)NCC(=O)N[C@@H](CC(C)C)C(=O)N[C@@H](CC(C)C)C(N)=O [FLPILINLIHKGLL]

MIC [4]: 6 µM (≈ 8.25 µg/mL)
SMILES: CC[C@H](C)[C@H](NC(=O)[C@H](C)NC(=O)[C@H](CO)NC(=O)[C@H](CC(C)C)NC(=O)[C@@H](N)Cc1ccccc1)C(=O)N[C@H](C(=O)N[C@@H](CO)C(=O)N[C@@H](CC(C)C)C(=O)N[C@@H](CC(C)C)C(=O)NCC(=O)N[C@@H](CCCCN)C(=O)N[C@@H](CC(C)C)C(=O)N[C@@H](CC(C)C)C(N)=O)[C@@H](C)O [FLSAITSLLGKLL]

MIC [6]: > 128 µM | MIC [7]: > 128 µM | MIC (Escherichia coli MG1655): ≥ 128 µM | MIC (Candida albicans): > 128 µM
SMILES: CSCC[C@H](NC(=O)[C@@H](NC(=O)[C@H](CCCCN)NC(=O)[C@H](Cc1cnc[nH]1)NC(=O)[C@H](CC(C)C)NC(=O)CN)C(C)C)C(=O)N[C@@H](CCCN=C(N)N)C(=O)N[C@@H](CCC(=O)O)C(=O)N[C@H](C(=O)N[C@@H](CC(C)C)C(=O)NCC(=O)N[C@@H](Cc1ccc(O)cc1)C(=O)N[C@@H](CCC(=O)O)C(=O)N[C@@H](CCCN=C(N)N)C(=O)N[C@@H](CC(N)=O)C(=O)N[C@@H](CO)C(=O)N[C@@H](Cc1ccc(O)cc1)C(=O)N[C@@H](CCCCN)C(N)=O)C(C)C [GLHKVMREVLGYERNSYK]

MIC [8]: 72.5 µM (≈ 150 µg/mL) | MIC [6]: > 72.5 µM | MIC [9]: 9 µM (≈ 18.6 µg/mL)
SMILES: CC[C@H](C)[C@H](NC(C)=O)C(=O)N[C@@H](CC(=O)O)C(=O)NCC(=O)N[C@@H](CC(C)C)C(=O)N[C@@H](CCCCN)C(=O)N[C@@H](C)C(=O)N[C@H](C(=O)N[C@@H](Cc1c[nH]c2ccccc12)C(=O)N[C@@H](CCCCN)C(=O)N[C@@H](CCCCN)C(=O)N[C@H](C(=O)N[C@@H](C)C(=O)N[C@@H](CC(=O)O)C(=O)N[C@@H](CC(C)C)C(=O)N[C@@H](CC(C)C)C(=O)N[C@@H](CCCCN)C(=O)N[C@@H](CC(N)=O)C(=O)N[C@H](C(N)=O)[C@@H](C)O)C(C)C)[C@@H](C)CC [IDGLKAIWKKVADLLKNT]

MIC [1]: 1.02 µM (≈ 2 µg/mL) | MIC [2]: 10.2 µM (≈ 20 µg/mL) | MIC [3]: 1.02 µM (≈ 2 µg/mL) | MIC [10]: 2.03 µM (≈ 4 µg/mL)
SMILES: CC[C@H](C)[C@H](N)C(=O)N[C@@H](CC(C)C)C(=O)NCC(=O)N1CCC[C@H]1C(=O)N[C@H](C(=O)N[C@@H](CC(C)C)C(=O)N[C@@H](CO)C(=O)N[C@@H](CCSC)C(=O)N[C@H](C(=O)NCC(=O)N[C@@H](CO)C(=O)N[C@@H](C)C(=O)N[C@@H](CC(C)C)C(=O)NCC(=O)NCC(=O)N[C@@H](CC(C)C)C(=O)N[C@H](C(=O)N[C@@H](CCCCN)C(=O)N[C@@H](CCCCN)C(=O)N[C@H](C(N)=O)[C@@H](C)CC)[C@@H](C)CC)C(C)C)C(C)C [ILGPVLSMVGSALGGLIKKI]

MIC [2]: 30 µM (≈ 54.3 µg/mL) | MIC [4]: 7 µM (≈ 12.7 µg/mL)
SMILES: CC[C@H](C)[C@H](N)C(=O)N[C@@H](CC(C)C)C(=O)N1CCC[C@H]1C(=O)N[C@@H](CC(C)C)C(=O)N[C@@H](CC(C)C)C(=O)N[C@@H](CC(C)C)C(=O)NCC(=O)N[C@@H](CCCCN)C(=O)N[C@H](C(=O)N[C@H](C(=O)N[C@H]1CSSC[C@@H](C(=O)O)NC(=O)[C@H](CCCCN)NC(=O)[C@H](CCCCN)NC(=O)[C@H]([C@@H](C)O)NC(=O)[C@H]([C@@H](C)CC)NC(=O)[C@H](C)NC1=O)C(C)C)C(C)C [ILPLLLGKVVCAITKKC]

MIC [2]: > 100 µM | MIC [4]: ≥ 100 µM
SMILES: CC[C@H](C)[C@H](N)C(=O)N[C@@H](CC(C)C)C(=O)N1CCC[C@H]1C(=O)N[C@@H](CC(C)C)C(=O)N[C@H](C(=O)NCC(=O)N[C@@H](CC(N)=O)C(=O)N[C@@H](CC(C)C)C(=O)N[C@@H](CC(C)C)C(=O)N[C@@H](CC(N)=O)C(=O)N[C@@H](CC(=O)O)C(=O)N[C@@H](CC(C)C)C(=O)N[C@@H](CC(C)C)C(N)=O)C(C)C [ILPLVGNLLNDLL]

MIC [1]: 5.05 µM (≈ 7.5 µg/mL) | MIC [2]: 10.1 µM (≈ 15 µg/mL) | MIC [3]: 2.49 µM (≈ 3.7 µg/mL)
SMILES: CC[C@H](C)[C@H](N)C(=O)N[C@@H](CC(N)=O)C(=O)N[C@@H](Cc1c[nH]c2ccccc12)C(=O)N[C@@H](CCCCN)C(=O)NCC(=O)N[C@H](C(=O)N[C@@H](C)C(=O)N[C@@H](C)C(=O)N[C@@H](CCSC)C(=O)N[C@@H](CCCCN)C(=O)N[C@@H](CCCCN)C(=O)N[C@@H](CC(C)C)C(=O)N[C@@H](CC(C)C)C(N)=O)[C@@H](C)CC [INWKGIAAMKKLL]

MIC (Escherichia coli UB1005): 0.329 µM (≈ 1 µg/mL) | MIC (Staphylococcus aureus): > 21 µM | MIC (Pseudomonas aeruginosa): 0.93 µM (≈ 2.83 µg/mL) | MIC [7]: 1.31 µM (≈ 4 µg/mL) | MIC [11]: 0.986 µM (≈ 3 µg/mL)
SMILES: CC[C@H](C)[C@H](NC(=O)[C@H](Cc1ccccc1)NC(=O)[C@H](CCCCN)NC(=O)[C@H](CCCCN)NC(=O)[C@H](Cc1c[nH]c2ccccc12)NC(=O)[C@@H](N)CCCCN)C(=O)N[C@@H](CCCCN)C(=O)N[C@@H](CO)C(=O)N[C@@H](CC(C)C)C(=O)N[C@H](C(=O)N[C@@H](CCCCN)C(=O)N[C@@H](CO)C(=O)N[C@@H](C)C(=O)N[C@@H](C)C(=O)N[C@@H](CCCCN)C(=O)N[C@H](C(=O)N[C@H](C(=O)N[C@H](C(=O)N[C@@H](CCCCN)C(=O)N[C@H](C(=O)N[C@@H](C)C(=O)N[C@@H](CCCCN)C(=O)N[C@@H](CCCCN)C(=O)N1CCC[C@H]1C(=O)N[C@@H](CC(C)C)C(=O)N[C@H](C(=O)N[C@H](C(N)=O)C(C)C)[C@@H](C)CC)[C@@H](C)O)C(C)C)C(C)C)[C@@H](C)O)[C@@H](C)O [KWKKFIKSLTKSAAKTVVKTAKKPLIV]

MIC [2]: 25 µM (≈ 59.5 µg/mL) | MIC [4]: 6 µM (≈ 14.3 µg/mL) | MIC [5]: 25 µM (≈ 59.5 µg/mL)
SMILES: CC[C@H](C)[C@H](NC(=O)[C@H](CO)NC(=O)CNC(=O)[C@@H](NC(=O)[C@@H](N)C(C)C)[C@@H](C)CC)C(=O)N[C@@H](CC(C)C)C(=O)NCC(=O)N[C@@H](C)C(=O)N[C@@H](CC(C)C)C(=O)N[C@@H](C)C(=O)N[C@@H](CO)C(=O)NCC(=O)N[C@@H](CC(C)C)C(=O)N1CCC[C@H]1C(=O)N[C@H](C(=O)N[C@@H](CC(C)C)C(=O)N[C@H](C(=O)N[C@@H](CO)C(=O)N[C@@H](Cc1c[nH]c2ccccc12)C(=O)N[C@H](C(=O)N[C@@H](CCCCN)C(=O)N[C@@H](CC(N)=O)C(=O)N[C@@H](CCCN=C(N)N)C(N)=O)[C@@H](C)CC)[C@@H](C)CC)[C@@H](C)O [VIGSILGALASGLPTLISWIKNR]

MIC [1]: 4.75 µM (≈ 9.38 µg/mL) | MIC [2]: 19 µM (≈ 37.5 µg/mL) | MIC (Bacillus subtilis): ≥ 50.7 µM | MIC [3]: ≥ 50.7 µM
SMILES: CC(C)[C@H](N)C(=O)N[C@@H](CCCCN)C(=O)N[C@@H](CCCN=C(N)N)C(=O)N[C@@H](Cc1ccccc1)C(=O)N[C@@H](CCCCN)C(=O)N[C@@H](CCCCN)C(=O)N[C@@H](Cc1ccccc1)C(=O)N[C@@H](Cc1ccccc1)C(=O)N[C@@H](CCCN=C(N)N)C(=O)N[C@@H](CCCCN)C(=O)N[C@@H](Cc1ccccc1)C(=O)N[C@@H](CCCCN)C(=O)N[C@@H](CCCCN)C(=O)N[C@@H](CO)C(=O)N[C@H](C(N)=O)C(C)C [VKRFKKFFRKFKKSV]

MIC (Acinetobacter baumannii): 21.6 µM (≈ 32 µg/mL) | MIC [2]: 5.4 µM (≈ 8 µg/mL) | MIC [6]: 5.4 µM (≈ 8 µg/mL) | MIC (Staphylococcus aureus): 15.3 µM (≈ 22.6 µg/mL) | MIC (Pseudomonas aeruginosa): 30.6 µM (≈ 45.3 µg/mL) | MIC [7]: 21.6 µM (≈ 32 µg/mL) | MIC [11]: 2.7 µM (≈ 4 µg/mL) | MIC (Escherichia coli): 43.2 µM (≈ 64 µg/mL)
SMILES: CC[C@H](C)[C@H](NC(=O)[C@H](CCCN=C(N)N)NC(=O)[C@@H](NC(=O)[C@H](CCCN=C(N)N)NC(=O)[C@H](Cc1c[nH]c2ccccc12)NC(=O)[C@H](CCC(N)=O)NC(=O)[C@@H](N)C(C)C)[C@@H](C)CC)C(=O)N[C@@H](C)C(=O)N[C@H](C(=O)N[C@H](C(=O)N[C@@H](CCCN=C(N)N)C(=O)N[C@@H](C)C(=O)O)[C@@H](C)CC)C(C)C [VQWRIRIAVIRA]

MIC [2]: 21.3 µM (≈ 32 µg/mL) | MIC [6]: 21.3 µM (≈ 32 µg/mL) | MIC [7]: 21.3 µM (≈ 32 µg/mL) | MIC [11]: 21.3 µM (≈ 32 µg/mL)
SMILES: CC[C@H](C)[C@H](NC(=O)[C@H](CCCN=C(N)N)NC(=O)[C@H](Cc1c[nH]c2ccccc12)NC(=O)[C@H](CCC(N)=O)NC(=O)[C@@H](N)C(C)C)C(=O)N[C@@H](CCCN=C(N)N)C(=O)N[C@H](C(=O)N[C@@H](CS)C(=O)N[C@H](C(=O)N[C@H](C(=O)N[C@@H](CCCN=C(N)N)C(=O)N[C@@H](C)C(=O)O)[C@@H](C)CC)C(C)C)C(C)C [VQWRIRVCVIRA]
